Assay results as given in patent US6875727B2, “Use of macrolides in pest control” (Syngenta Crop Protection, Inc., priority 1998, dated 2005).

Columns and labels:
Assay type in all cases: in vivo
[1] = system: Heliothis spp.; test: Plot test, maize cv. KnockOut vs conventional maize, natural infestation with Heliothis spp.; conditions: for control of Heliothis on plot (a): plot (a) maize cv. KnockOut, spray 200, 100, 50, 10, 5, 1 ppm, evaluation 6 days later; for control level on plot (b): plot (b) conventional maize, also treated with 200, 100, 50, 10, 5, 1 ppm of the endotoxin expressed by KnockOut, 6 days
Protocol: (§1) A plot (a) planted with maize cv. KnockOut® and an adjacent plot (b) of the same size which is planted with conventional maize, both showing natural infestation with Ostrinia nubilalis, Spodoptera spp. or Heliothis, are sprayed with an aqueous emulsion spray mixture comprising 200, 100, 50, 10, 5, 1 ppm of spinosad. Immediately afterwards, plot (b) is treated with an emulsion spray mixture comprising 200, 100, 50, 10, 5, 1 ppm of the endotoxin expressed by KnockOut®. Evaluation takes place 6 days later. The percentage reduction in population (% action) is determined by comparing the number of dead pests on the plants of plot (a) with that on the plants of plot (b).
as §1, with “sp” for “spp.”, “abamectin.” for “spinosad.”
as §1, with “sp” for “spp.”, “emamectin benzoate.” for “spinosad.”

[2] = system: Ostrinia nubilalis; test: Plot test, maize cv. KnockOut vs conventional maize, natural infestation with Ostrinia nubilalis; conditions: for control of Ostrinia nubilalis on plot (a): plot (a) maize cv. KnockOut, spray 200, 100, 50, 10, 5, 1 ppm, evaluation 6 days later; for control level on plot (b): plot (b) conventional maize, also treated with 200, 100, 50, 10, 5, 1 ppm of the endotoxin expressed by KnockOut, 6 days
Protocol: as §1
as §1, with “sp” for “spp.”, “abamectin.” for “spinosad.”
as §1, with “sp” for “spp.”, “emamectin benzoate.” for “spinosad.”

[3] = system: Spodoptera littoralis larvae; test: Spray action on transgenic cotton plants against Spodoptera littoralis larvae
Text: (§2) Young transgenic cotton plants which express the δ-endotoxin CryIIIA are sprayed with an aqueous emulsion spray mixture comprising 100, 50, 10, 5, 1 ppm of emamectin-benzoate respectively. After the spray coating has dried on, the cotton plants are populated with 10 adult Anthonomus grandis, 10 Spodoptera littoralis larvae or 10 Heliothis virescens larvae respectively and introduced into a plastic container. Evaluation takes place 3 to 10 days later. The percentage reduction in population, or the percentage reduction in feeding damage (% action), is determined by comparing the number of dead beetles and the feeding damage on the transgenic cotton plants with that of non-transgenic cotton plants which have been treated with an emulsion spray mixture comprising emamectin-benzoate and conventional CryIIIA-toxin at a concentration of in each case 100, 50, 10, 5, 1 ppm respectively.
as §2, with “abamectin” for “emamectin-benzoate”
as §2, with “spinosad” for “emamectin-benzoate”
as §2, with “δ-endotoxin CryIa(c)” for “δ-endotoxin CryIIIA”, “of spinosad” for “of emamectin-benzoate”, “comprising spinosad” for “comprising emamectin-benzoate”
(§3) Young transgenic cotton plants which express the δ-endotoxin CryIa(c) are sprayed with an aqueous emulsion spray mixture comprising 100, 50, 10, 5, 1 ppm of abamectin respectively. After the spray coating has dried on, the cotton plants are populated with 10 adult Anthonomus grandis, 10 Spodoptera littoralis larvae or 10 Heliothis virescens larvae respectively and introduced into a plastic container. Evaluation takes place 3 to 10 days later. […]

[4] = system: Anthonomus grandis adults; test: Spray action on transgenic cotton plants against Anthonomus grandis adults
Text: as §2
as §2, with “abamectin” for “emamectin-benzoate”
as §2, with “spinosad” for “emamectin-benzoate”
as §2, with “δ-endotoxin CryIa(c)” for “δ-endotoxin CryIIIA”, “of spinosad” for “of emamectin-benzoate”, “comprising spinosad” for “comprising emamectin-benzoate”
as §3

[5] = system: Heliothis virescens larvae; test: Spray action on transgenic cotton plants against Heliothis virescens larvae
Text: as §2
as §2, with “abamectin” for “emamectin-benzoate”
as §2, with “spinosad” for “emamectin-benzoate”
as §2, with “δ-endotoxin CryIa(c)” for “δ-endotoxin CryIIIA”, “of spinosad” for “of emamectin-benzoate”, “comprising spinosad” for “comprising emamectin-benzoate”
as §3

[6] = system: Spodoptera spp.; test: Plot test, maize cv. KnockOut vs conventional maize, natural infestation with Spodoptera spp.; conditions: for control of Spodoptera spp. on plot (a): plot (a) maize cv. KnockOut, spray 200, 100, 50, 10, 5, 1 ppm, evaluation 6 days later; for control level on plot (b): plot (b) conventional maize, also treated with 200, 100, 50, 10, 5, 1 ppm of the endotoxin expressed by KnockOut, 6 days
Protocol: as §1
as §1, with “sp” for “spp.”, “abamectin.” for “spinosad.”
as §1, with “sp” for “spp.”, “emamectin benzoate.” for “spinosad.”

[7] = non-transgenic cotton, spray mixture with conventional CryIIIA-toxin, each 100, 50, 10, 5, 1 ppm (comparison to CryIIIA cotton)
[8] = non-transgenic cotton, spray mixture with conventional CryIIIA-toxin, each 100, 50, 10, 5, 1 ppm (comparison to CryIa(c) cotton)
[9] = transgenic cotton expressing δ-endotoxin CryIIIA, spray 100, 50, 10, 5, 1 ppm, evaluation 3 to 10 days
[10] = transgenic cotton expressing δ-endotoxin CryIa(c), spray 100, 50, 10, 5, 1 ppm, evaluation 3 to 10 days

emamectin-benzoate was tested, and the “control of Heliothis on plot (a)” value [1] was “Improved control”, the “control level on plot (b)” value [1] was at most 80% and the “control of Ostrinia nubilalis on plot (a)” value [2] was “Improved control”. The “control level on plot (b)” value [2] was at most 80%, the “control of the tested insects (% action: reduction in population or feeding damage)” value [3, 7] was “insufficient” and the “control of the tested insects (% action: reduction in population or feeding damage)” value [3, 8] was “insufficient”. For the same substance, the “control of the tested insects (% action: reduction in population or feeding damage)” value [3, 9] was “superior”, the “control of the tested insects (% action: reduction in population or feeding damage)” value [3, 10] was “superior” and the “control of the tested insects (% action: reduction in population or feeding damage)” value [4, 7] was “insufficient”. For the same substance, the “control of the tested insects (% action: reduction in population or feeding damage)” value [4, 8] was “insufficient”, the “control of the tested insects (% action: reduction in population or feeding damage)” value [4, 9] was “superior” and the “control of the tested insects (% action: reduction in population or feeding damage)” value [4, 10] was “superior”. The “control of the tested insects (% action: reduction in population or feeding damage)” value [5, 7] was “insufficient”, the “control of the tested insects (% action: reduction in population or feeding damage)” value [5, 8] was “insufficient” and the “control of the tested insects (% action: reduction in population or feeding damage)” value [5, 9] was “superior”. For the same substance, the “control of the tested insects (% action: reduction in population or feeding damage)” value [5, 10] was “superior”, the “control of Spodoptera spp. on plot (a)” value [6] was “Improved control” and the “control level on plot (b)” value [6] was at most 80%.

In the case of spinosad, the “control of Heliothis on plot (a)” value [1] is reported as “Improved control”, the “control level on plot (b)” value [1] is reported as at most 80% and the “control of Ostrinia nubilalis on plot (a)” value [2] is reported as “Improved control”. For the same substance, the “control level on plot (b)” value [2] was at most 80%, the “control of the tested insects (% action: reduction in population or feeding damage)” value [3, 7] was “insufficient” and the “control of the tested insects (% action: reduction in population or feeding damage)” value [3, 8] was “insufficient”. For the same substance, the “control of the tested insects (% action: reduction in population or feeding damage)” value [3, 9] was “superior”, the “control of the tested insects (% action: reduction in population or feeding damage)” value [3, 10] was “superior” and the “control of the tested insects (% action: reduction in population or feeding damage)” value [4, 7] was “insufficient”. For the same substance, the “control of the tested insects (% action: reduction in population or feeding damage)” value [4, 8] was “insufficient”, the “control of the tested insects (% action: reduction in population or feeding damage)” value [4, 9] was “superior” and the “control of the tested insects (% action: reduction in population or feeding damage)” value [4, 10] was “superior”. The “control of the tested insects (% action: reduction in population or feeding damage)” value [5, 7] was “insufficient”, the “control of the tested insects (% action: reduction in population or feeding damage)” value [5, 8] was “insufficient” and the “control of the tested insects (% action: reduction in population or feeding damage)” value [5, 9] was “superior”. For the same substance, the “control of the tested insects (% action: reduction in population or feeding damage)” value [5, 10] was “superior”, the “control of Spodoptera spp. on plot (a)” value [6] was “Improved control” and the “control level on plot (b)” value [6] was at most 80%.

In the case of abamectin, the “control of Heliothis on plot (a)” value [1] is reported as “Improved control”, the “control level on plot (b)” value [1] is reported as at most 80% and the “control of Ostrinia nubilalis on plot (a)” value [2] is reported as “Improved control”. For the same substance, the “control level on plot (b)” value [2] was at most 80%, the “control of the tested insects (% action: reduction in population or feeding damage)” value [3, 7] was “insufficient” and the “control of the tested insects (% action: reduction in population or feeding damage)” value [3, 8] was “insufficient”. The “control of the tested insects (% action: reduction in population or feeding damage)” value [3, 9] was “superior”, the “control of the tested insects (% action: reduction in population or feeding damage)” value [3, 10] was “superior” and the “control of the tested insects (% action: reduction in population or feeding damage)” value [4, 7] was “insufficient”. The “control of the tested insects (% action: reduction in population or feeding damage)” value [4, 8] was “insufficient”, the “control of the tested insects (% action: reduction in population or feeding damage)” value [4, 9] was “superior” and the “control of the tested insects (% action: reduction in population or feeding damage)” value [4, 10] was “superior”. For the same substance, the “control of the tested insects (% action: reduction in population or feeding damage)” value [5, 7] was “insufficient”, the “control of the tested insects (% action: reduction in population or feeding damage)” value [5, 8] was “insufficient” and the “control of the tested insects (% action: reduction in population or feeding damage)” value [5, 9] was “superior”. The “control of the tested insects (% action: reduction in population or feeding damage)” value [5, 10] was “superior”, the “control of Spodoptera spp. on plot (a)” value [6] was “Improved control” and the “control level on plot (b)” value [6] was at most 80%.
